Like-named read-outs stand apart in the source and are kept apart here.

The IC50 is the point on the concentration scale where inhibition reaches its midpoint.

In data set [1] the target is human BACE1(1-460):Fc (Homo sapiens (Human), UniProt P56817). The data set can be described thus: BACE1 FRET Assay. Format: biochemical. To be noted: purified recombinant huBACE1:Fc, FRET substrate, pH 4.6; Mean ± SEM. The procedure:
(§1) For in vitro enzymatic and cellular assays, test compounds are prepared in DMSO to make up a 10 mM stock solution. The stock solution is serially diluted in DMSO to obtain a ten-point dilution curve with final compound concentrations ranging from […] to 0.05 nM in a 96-well round-bottom plate before conducting the in vitro enzymatic and whole cell assays.
Human BACE1 (accession number: AF190725) is cloned from total brain cDNA by RT-PCR. The nucleotide sequences corresponding to amino acid sequences #1 to 460 are inserted into the cDNA encoding human IgG1 (Fc) polypeptide (Vassar et al. 1999). This fusion protein of BACE1(1-460) and human Fc, named huBACE1:Fc, is constructed into the pJB02 vector. Human BACE1(1-460):Fc (huBACE1:Fc) is transiently expressed in HEK293 cells. 250 μg cDNA of each construct is mixed with Fugene 6 and added to 1 liter HEK293 cells. Four days after the transfection, conditioned media are harvested for purification.
huBACE1:Fc is purified by Protein A chromatography. The enzyme is stored at −80° C. in small aliquots.
Serial dilutions of test compounds are prepared as described above. Compounds are further diluted 20× in KH2PO4 buffer. […] The content is mixed well on a plate shaker for 10 minutes. Fifteen μL of two hundred pM human BACE1(1-460):Fc (See Vasser, et al., Science, 286, 735-741 (1999)) in the KH2PO4 buffer is added to the plate containing substrate and test compounds to initiate the reaction. The RFU of the mixture at time 0 is recorded at excitation wavelength 355 nm and emission wavelength 460 nm, after brief mixing on a plate shaker. The reaction plate is covered with aluminum foil and kept in a dark humidified oven at room temperature for 16 to 24 h. The RFU at the end of incubation is recorded with the same excitation and emission settings used at time 0. The difference of the RFU at time 0 and the end of incubation is representative of the activity of BACE1 under the compound treatment. RFU differences are plotted versus inhibitor concentration and a curve is fitted with a four-parameter logistic equation to obtain the EC50 and IC50 values. (See Sinha, et al., Nature, 402, 537-540 […]).

Data set [2] has as its system PDAPP mice. Nature of the data set: In Vivo Inhibition of Beta-Secretase (brain Abeta 1-x reduction). More on the design: species or system mouse. As to conditions: for Abeta 1-x peptide levels reduced in brain cortex / Abeta 1-x peptide levels reduced in brain hippocampus: 3 hours after administration, compared to vehicle-treated mice. The text has this:
Several animal models, including mouse, guinea pig, dog, and monkey, may be used to screen for inhibition of beta-secretase activity in vivo following compound treatment. Animals used in this invention can be wild type, transgenic, or gene knockout animals. For example, the PDAPP mouse model, prepared as described in Games et al., Nature 373, 523-527 (1995), and other non-transgenic or gene knockout animals are useful to analyze in vivo inhibition of Abeta and sAPPbeta production in the presence of inhibitory compounds. Generally, 2 to 12 month old PDAPP mice, gene knockout mice or non-transgenic animals are administered compound formulated in vehicles, such as corn oil, cyclodextran, phosphate buffers, PHARMASOLVE®, or other suitable vehicles. One to twenty-four hours following the administration of compound, animals are sacrificed, and brains as well as cerebrospinal fluid and plasma are removed for analysis of Abetas, C99, and sAPP fragments. (See May, et al., Journal of Neuroscience, 31, 16507-16516 (2011)).
For standard in vivo pharmacology studies, animals are dosed with various concentrations of compound and compared to a vehicle-treated control group dosed at the same time. For some time course studies, brain tissue, plasma, or cerebrospinal fluid is obtained from selected animals, beginning at time 0 to establish a baseline. Compound or appropriate vehicle is administered to other groups and sacrificed at various times after dosing. Brain tissue, plasma, or cerebrospinal fluid is obtained from selected animals and analyzed for the presence of APP cleavage products, including Abeta peptides, sAPPbeta, and other APP fragments, for example, by specific sandwich ELISA assays. At the end of the test period, animals are sacrificed and brain tissues, plasma, or cerebrospinal fluid are analyzed for the presence of Abeta peptides, C99, and sAPPbeta, as appropriate. Brain tissues of APP transgenic animals may also be analyzed for the amount of beta-amyloid plaques following compound treatment. “Abeta 1-x peptide” as used herein refers to the sum of Abeta species that begin with residue 1 and ending with a C-terminus greater than residue 28. This detects the majority of Abeta species and is often called “total Abeta”.

In data set [3] the test system is HEK293Swe cells. Nature of the data set: HEK293Swe Whole Cell Assay (Abeta ELISA). In kind it is cell-based. As to conditions: Homo sapiens. How it is done:
as §1
In vitro Abeta reduction assays have been described in the literature (See Dovey, et al., Journal of Neurochemistry, 76, 173-181 (2001); Seubert, et al., Nature, 361, 260 (1993); and Johnson-Wood, et al., Proc. Natl. Acad. Sci. USA, 94, 1550-1555 (1997)).
At the end of the incubation, conditioned media are analyzed for evidence of beta-secretase activity, for example, by analysis of Abeta peptides. Total Abeta peptides (Abeta 1-x) are measured by a sandwich ELISA, using monoclonal 266 as a capture antibody and biotinylated 3D6 as reporting antibody. Alternatively, Abeta 1-40 and Abeta 1-42 peptides are measured by a sandwich ELISA, using monoclonal 2G3 as a capture antibody for Abeta 1-40, and monoclonal 21F12 as a capture antibody for Abeta 1-42. Both Abeta 1-40 and Abeta 1-42 ELISAs use biotinylated 3D6 as the reporting antibody. The concentration of Abeta released in the conditioned media following the compound treatment corresponds to the activity of BACE1 under such conditions. The 10-point inhibition curve is plotted and fitted with the four-parameter logistic equation to obtain the EC50 and IC50 values for the Abeta-lowering effect.
For orientation: ELISA stands for enzyme-linked immunosorbent assay.

The test system of data set [4] is primary cortical neurons from PDAPP transgenic embryonic mice. Nature of the data set: PDAPP Primary Neuronal Assay (Abeta ELISA). As to conditions: Mus musculus, Primary cortical neuron, 24 h. Format: cell-based. The procedure: as §1
A confirmatory whole cell assay is also run in primary neuronal cultures generated from PDAPP transgenic embryonic mice. Primary cortical neurons are prepared from Embryonic Day 16 PDAPP embryos and cultured in 96 well plates (15×10^4 cells/well in DMEM/F12 (1:1) plus 10% FBS). After 2 days in vitro, culture media is replaced with serum free DMEM/F12 (1:1) containing B27 supplement and 2 μM (final) of Ara-C (Sigma, C1768). At day 5 in vitro, neurons are incubated at 37° C. for 24 h in the presence/absence of inhibitors (diluted in DMSO) at the desired concentration. At the end of the incubation, conditioned media are analyzed for evidence of beta-secretase activity, for example, by analysis of Abeta peptides. Total Abeta peptides (Abeta 1-x) are measured by a sandwich ELISA, using monoclonal 266 as a capture antibody and biotinylated 3D6 as reporting antibody. Alternatively, Abeta 1-40 and Abeta 1-42 peptides are measured by a sandwich ELISA, using monoclonal 2G3 as a capture antibody for Abeta 1-40, and monoclonal 21F12 as a capture antibody for Abeta 1-42. Both Abeta 1-40 and Abeta 1-42 ELISAs use biotinylated 3D6 as the reporting antibody. The concentration of Abeta released in the conditioned media following the compound treatment corresponds to the activity of BACE1 under such conditions. The 10-point inhibition curve is plotted and fitted with the four-parameter logistic equation to obtain the EC50 and IC50 values for the Abeta-lowering effect.

human BACE1(1-460):Fc, sequence (P56817 22-460): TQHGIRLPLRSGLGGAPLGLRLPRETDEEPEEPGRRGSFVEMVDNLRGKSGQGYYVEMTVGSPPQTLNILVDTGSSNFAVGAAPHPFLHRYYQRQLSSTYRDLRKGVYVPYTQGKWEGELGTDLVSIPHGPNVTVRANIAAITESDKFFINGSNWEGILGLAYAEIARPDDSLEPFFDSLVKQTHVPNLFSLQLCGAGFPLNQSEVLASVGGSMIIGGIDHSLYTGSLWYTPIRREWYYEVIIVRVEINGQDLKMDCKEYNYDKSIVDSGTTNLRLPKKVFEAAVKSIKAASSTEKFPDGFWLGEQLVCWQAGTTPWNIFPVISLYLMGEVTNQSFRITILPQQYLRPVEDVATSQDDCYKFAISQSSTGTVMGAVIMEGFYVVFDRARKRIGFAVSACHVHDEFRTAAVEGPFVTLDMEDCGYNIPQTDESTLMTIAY

For the compound `Cl.NC1=N[C@@]2(c3cccc(NC(=O)c4ccc(F)cn4)c3)CN(c3ncc(F)cn3)C[C@H]2CS1` [Example 1, N-{3-[(4aR,7aS)-2-Amino-6-(5-fluoropyrimidin-2-yl)-4a,5,6,7-tetrahydropyrrolo[3,4-d][1,3]thiazin-7a(4H)-yl]phenyl}-5-fluoropyridine-2-carboxamide hydrochloride], the IC50 in data set [1] is 0.61 nM; in data set [3] (HEK293, Abeta 1-40 in conditioned media, read-out: HEK 293 Swe A-beta (1-40) ELISA IC50) it was 0.619 nM; in data set [3] (HEK293, Abeta 1-42 in conditioned media, read-out: HEK 293 Swe A-beta (1-42) ELISA IC50), 0.437 nM; in data set [4] (Abeta 1-40, Mean ± SEM, read-out: PDAPP Neuron A-beta (1-40) ELISA IC50) it was 0.487 nM; in data set [4] (Abeta 1-42, Mean ± SEM, read-out: PDAPP Neuron A-beta (1-42) ELISA IC50), 0.591 nM. Also, the CNS penetration result in data set [2] is recorded as “demonstrate CNS penetration”. The “Abeta 1-x peptide levels reduced in brain cortex” value in data set [2] (1 mg/kg oral dose) was “approximately 43%”; in data set [2] (3 mg/kg oral dose), around 59%; in data set [2] (10 mg/kg oral dose), around 66%. In addition, the “Abeta 1-x peptide levels reduced in brain hippocampus” value in data set [2] (1 mg/kg oral dose) is listed as “approximately 34%”; in data set [2] (3 mg/kg oral dose), around 48%; in data set [2] (10 mg/kg oral dose), around 53%.

These data come from US8987254B2, “Tetrahydropyrrolothiazine compounds” (Eli Lilly and Company, priority 2013, dated 2015).
